Measured values reported in patent US20260049092A1, “ANTIBACTERIAL COMPOUNDS” (Blacksmith Medicines, Inc., priority 2022, published 2026).
In brackets after ≈: the same amount, converted by molar mass. Read-outs that look alike come from different tables or passages of the source.

How the values were obtained:
Assay in all cases: Bacterial susceptibility testing (MIC, broth microdilution)
Assay type in all cases: cell-based
[1] = test system: K. pneumoniae ATCC13883; conditions: for MIC: Klebsiella pneumoniae
Method: (§1) Minimal inhibitory concentrations (MIC) were determined by the broth microdilution method in accordance with the Clinical and Laboratory Standards Institute (CLSI) guidelines. In brief, organism suspensions were adjusted to a final inoculum between 3×10^5 and 7×10^5 colony-forming units (CFU)/mL. Drug dilutions and inocula were made in sterile, cation adjusted Mueller-Hinton Broth (Beckton Dickinson). In wells, an inoculum volume of 100 μL was mixed to 2 μL of DMSO with 2-fold serial dilutions of drug. All inoculated microdilution trays were incubated in ambient air at 35° C. for 18-24 h. Following incubation, the lowest concentration of the drug that prevented visible growth (OD600 nm<0.05) was recorded as the MIC. Performance of the assay was monitored by the use of laboratory quality -control strains and compounds with defined MIC spectrum, in accordance with CLSI guidelines.

[2] = test system: P. aeruginosa PAO1; conditions: Pseudomonas aeruginosa
Method: as §1

[3] = test system: E. coli ATCC25922; conditions: for MIC: Escherichia coli
Method: as §1

[4] = test system: P. aeruginosa ATCC27853; conditions: for MIC: Pseudomonas aeruginosa
Method: as §1

[5] = ATCC13883, broth microdilution, cation adjusted Mueller-Hinton Broth, 35° C., 18-24 h, read-out: K. pneumoniae ATCC13883 MIC
[6] = PAO1, broth microdilution, cation adjusted Mueller-Hinton Broth, 35° C., 18-24 h, read-out: P. aeruginosa PAO1 MIC
[7] = ATCC25922, broth microdilution, cation adjusted Mueller-Hinton Broth, 35° C., 18-24 h, read-out: E. coli ATCC25922 MIC
[8] = ATCC27853, broth microdilution, cation adjusted Mueller-Hinton Broth, 35° C., 18-24 h, read-out: P. aeruginosa ATCC27853 MIC
[9] = broth microdilution, cation adjusted Mueller-Hinton Broth, 35° C., 18-24 h

| SMILES | MIC [1, 5] | MIC [2, 6] | MIC [3, 7] | MIC [4, 8] | MIC ([1]; ATCC13883, read-out: K. pneumoniae ATCC13883 MIC) | MIC ([2]; PAO1, read-out: P. aeruginosa PAO1 MIC) | MIC ([3]; ATCC25922, read-out: E. coli ATCC25922 MIC) | MIC ([4]; ATCC27853, read-out: P. aeruginosa ATCC27853 MIC) | K. pneumoniae ATCC13883 MIC [1, 9] | E. coli ATCC25922 MIC [3, 9] | P. aeruginosa ATCC27853 MIC [4, 9] |
| --- | --- | --- | --- | --- | --- | --- | --- | --- | --- | --- | --- |
| C[C@H](O)c1nccn1[C@@H](C#Cc1ccc(-c2ccc(O[C@@H]3COC[C@H]3O)cc2F)cc1)CO (racemic) [Compound 1, (rac-trans)-4-((2-fluoro-4′-((S)-4-hydroxy-3-(2-((S)-1-hydroxyethyl)-1H-imidazol-1-yl)but-1-yn-1-yl)-[1,1′-biphenyl]-4-yl)oxy)tetrahydrofuran-3-ol] | 2 µg/mL (≈ 4.42 µM) | 2 µg/mL (≈ 4.42 µM) | 0.5 µg/mL (≈ 1.11 µM) | 4 µg/mL (≈ 8.84 µM) | – | – | – | – | – | – | – |
| C[C@H](O)c1nccn1[C@@H](C#Cc1ccc(-c2ccc(O[C@@H]3COC[C@H]3O)cc2)cc1F)CO (racemic) [Compound 4, (rac-trans)-4-((3′-fluoro-4′-((S)-4-hydroxy-3-(2-((S)-1-hydroxyethyl)-1H-imidazol-1-yl)but-1-yn-1-yl)-[1,1′-biphenyl]-4-yl)oxy)tetrahydrofuran-3-ol] | 4 µg/mL (≈ 8.84 µM) | 8 µg/mL (≈ 17.7 µM) | 2 µg/mL (≈ 4.42 µM) | 8 µg/mL (≈ 17.7 µM) | – | – | – | – | – | – | – |
| C[C@H](O)c1nccn1[C@@H](C#Cc1ccc(-c2ccc(O[C@@H]3COC[C@H]3O)cc2)c(F)c1)CO (racemic) [Compound 5, (rac-trans)-4-((2′-fluoro-4′-((S)-4-hydroxy-3-(2-((S)-1-hydroxyethyl)-1H-imidazol-1-yl)but-1-yn-1-yl)-[1,1′-biphenyl]-4-yl)oxy)tetrahydrofuran-3-ol] | 4 µg/mL (≈ 8.84 µM) | 4 µg/mL (≈ 8.84 µM) | 2 µg/mL (≈ 4.42 µM) | 4 µg/mL (≈ 8.84 µM) | – | – | – | – | – | – | – |
| C[C@H](O)c1nccn1[C@@H](C#Cc1ccc(-c2ccc(OC3COC[C@H]3O)c(F)c2)cc1)CO (mixture of isomers) [Compound 6, (rac-trans)-4-((3-fluoro-4′-((S)-4-hydroxy-3-(2-((S)-1-hydroxyethyl)-1H-imidazol-1-yl)but-1-yn-1-yl)-[1,1′-biphenyl]-4-yl)oxy)tetrahydrofuran-3-ol] | 4 µg/mL (≈ 8.84 µM) | 2 µg/mL (≈ 4.42 µM) | 2 µg/mL (≈ 4.42 µM) | 4 µg/mL (≈ 8.84 µM) | – | – | – | – | – | – | – |
| C[C@H](O)c1nccn1[C@@H](C#Cc1ccc(-c2ccc(CO[C@@H]3COC[C@H]3O)c(F)c2)cc1)CO (racemic) [Compound 44, (rac-trans)-4-((3-fluoro-4′-((S)-4-hydroxy-3-(2-((S)-1-hydroxyethyl)-1H-imidazol-1-yl)but-1-yn-1-yl)-[1,1′-biphenyl]-4-yl)methoxy)tetrahydrofuran-3-ol] | 8 µg/mL (≈ 17.1 µM) | 8 µg/mL (≈ 17.1 µM) | 4 µg/mL (≈ 8.57 µM) | 8 µg/mL (≈ 17.1 µM) | – | – | – | – | – | – | – |
| C[C@H](O)c1nccn1[C@@H](C#Cc1ccc(-c2ccc(O[C@@H]3CCOC[C@H]3O)c(F)c2)cc1)CO (racemic) [Compound 51, (rac-trans)-4-((3-fluoro-4′-((S)-4-hydroxy-3-(2-((S)-1-hydroxyethyl)-1H-imidazol-1-yl)but-1-yn-1-yl)-[1,1′-biphenyl]-4-yl)oxy)tetrahydro-2H-pyran-3-ol] | 4 µg/mL (≈ 8.57 µM) | 2 µg/mL (≈ 4.29 µM) | 2 µg/mL (≈ 4.29 µM) | 8 µg/mL (≈ 17.1 µM) | – | – | – | – | – | – | – |
| C[C@H](O)c1nccn1[C@@H](C#Cc1ccc(-c2ccc(O[C@@H]3CCOC[C@H]3O)cc2F)cc1)CO (racemic) [Compound 54, (rac-trans)-4-((2-fluoro-4′-((S)-4-hydroxy-3-(2-((S)-1-hydroxyethyl)-1H-imidazol-1-yl)but-1-yn-1-yl)-[1,1′-biphenyl]-4-yl)oxy)tetrahydro-2H-pyran-3-ol] | 2 µg/mL (≈ 4.29 µM) | 4 µg/mL (≈ 8.57 µM) | 1 µg/mL (≈ 2.14 µM) | 8 µg/mL (≈ 17.1 µM) | – | – | – | – | – | – | – |
| C[C@H](O)c1nccn1[C@@H](C#Cc1ccc(-c2ccc(CN[C@@H]3COC[C@H]3O)cc2)cc1)CO (racemic) [Compound 65] | 4 µg/mL (≈ 8.94 µM) | 2 µg/mL (≈ 4.47 µM) | 2 µg/mL (≈ 4.47 µM) | 4 µg/mL (≈ 8.94 µM) | – | – | – | – | – | – | – |
| C[C@H](O)c1nccn1[C@@H](C#Cc1ccc(-c2ccc(NC[C@@H]3COC[C@H]3O)cc2)cc1)CO (racemic) [Compound 69, (rac-trans)-4-(((4′-((S)-4-hydroxy-3-(2-((S)-1-hydroxyethyl)-1H-imidazol-1-yl)but-1-yn-1-yl)-[1,1′-biphenyl]-4-yl)amino)methyl)tetrahydrofuran-3-ol] | 2 µg/mL (≈ 4.47 µM) | 1 µg/mL (≈ 2.23 µM) | 1 µg/mL (≈ 2.23 µM) | 2 µg/mL (≈ 4.47 µM) | – | – | – | – | – | – | – |
| CC(N1CC(Oc2ccc(-c3ccc(C#C[C@@H](CO)n4ccnc4[C@H](C)O)cc3)cc2)C1)C(F)(F)F (mixture of isomers) [Compound 97, (2S)-2-(2-((S)-1-hydroxyethyl)-1H-imidazol-1-yl)-4-(4′-((1-(1,1,1-trifluoropropan-2-yl)azetidin-3-yl)oxy)-[1,1′-biphenyl]-4-yl)but-3-yn-1-ol] | – | – | – | – | 8 µg/mL (≈ 16 µM) | 16 µg/mL (≈ 32 µM) | 4 µg/mL (≈ 8.01 µM) | 32 µg/mL (≈ 64.1 µM) | – | – | – |
| CC1C(Oc2ccc(-c3ccc(C#C[C@@H](CO)n4ccnc4[C@H](C)O)cc3)cc2)CN1CC#N (mixture of isomers) [Compound 99] | 2 µg/mL (≈ 4.38 µM) | 4 µg/mL (≈ 8.76 µM) | 1 µg/mL (≈ 2.19 µM) | 8 µg/mL (≈ 17.5 µM) | – | – | – | – | – | – | – |
| C[C@H](O)c1nccn1[C@@H](C#Cc1ccc(-c2ccc([C@H]3C[C@](N)(C#N)C3)cc2)cc1)CO (racemic) [Compound 101, (rac-cis)-1-amino-3-(4′-((S)-4-hydroxy-3-(2-((S)-1-hydroxyethyl)-1H-imidazol-1-yl)but-1-yn-1-yl)-[1,1′-biphenyl]-4-yl)cyclobutane-1-carbonitrile] | 1 µg/mL (≈ 2.34 µM) | 1 µg/mL (≈ 2.34 µM) | 0.5 µg/mL (≈ 1.17 µM) | 4 µg/mL (≈ 9.38 µM) | – | – | – | – | – | – | – |
| CNC(=O)C(C)Oc1ccc(-c2ccc(C#C[C@@H](CO)n3ccnc3[C@H](C)O)cc2)cc1 (mixture of isomers) [Compound 102, 2-((4′-((S)-4-hydroxy-3-(2-((S)-1-hydroxyethyl)-1H-imidazol-1-yl)but-1-yn-1-yl)-[1,1′-biphenyl]-4-yl)oxy)-N-methylpropanamide] | 4 µg/mL (≈ 9.23 µM) | 4 µg/mL (≈ 9.23 µM) | 2 µg/mL (≈ 4.61 µM) | 8 µg/mL (≈ 18.5 µM) | – | – | – | – | – | – | – |
| C[C@H](O)c1nccn1[C@@H](C#Cc1ccc(-c2ccc(OC3CCN(CC#N)C3)cc2)cc1)CO (mixture of isomers) [Compound 104, 2-(3-((4′-((S)-4-hydroxy-3-(2-((S)-1-hydroxyethyl)-1H-imidazol-1-yl)but-1-yn-1-yl)-[1,1′-biphenyl]-4-yl)oxy)pyrrolidin-1-yl)acetonitrile] | 4 µg/mL (≈ 8.76 µM) | 2 µg/mL (≈ 4.38 µM) | 2 µg/mL (≈ 4.38 µM) | 2 µg/mL (≈ 4.38 µM) | – | – | – | – | – | – | – |
| C[C@H](O)c1nccn1[C@@H](C#Cc1ccc(-c2ccc(C3CCO3)cc2)cc1)CO (mixture of isomers) [Compound 106, (2S)-2-(2-((S)-1-hydroxyethyl)-1H-imidazol-1-yl)-4-(4′-(oxetan-2-yl)-[1,1′-biphenyl]-4-yl)but-3-yn-1-ol] | 0.5 µg/mL (≈ 1.29 µM) | 2 µg/mL (≈ 5.15 µM) | 0.25 µg/mL (≈ 0.644 µM) | 4 µg/mL (≈ 10.3 µM) | – | – | – | – | – | – | – |
| CO[C@H]1C[C@H](c2ccc(-c3ccc(C#C[C@@H](CO)n4ccnc4[C@H](C)O)cc3)cc2)C1 (racemic) [Compound 117, (S)-2-(2-((S)-1-hydroxyethyl)-1H-imidazol-1-yl)-4-(4′-((rac-trans)-3-methoxycyclobutyl)-[1,1′-biphenyl]-4-yl)but-3-yn-1-ol] | 0.25 µg/mL (≈ 0.6 µM) | 2 µg/mL (≈ 4.8 µM) | 0.12 µg/mL (≈ 0.288 µM) | 4 µg/mL (≈ 9.6 µM) | – | – | – | – | – | – | – |
| CO[C@H]1C[C@@H](c2ccc(-c3ccc(C#C[C@@H](CO)n4ccnc4[C@H](C)O)cc3)cc2)C1 (racemic) [Compound 118, (S)-2-(2-((S)-1-hydroxyethyl)-1H-imidazol-1-yl)-4-(4′-((rac-cis)-3-methoxycyclobutyl)-[1,1′-biphenyl]-4-yl)but-3-yn-1-ol] | 0.38 µg/mL (≈ 0.912 µM) | 2 µg/mL (≈ 4.8 µM) | 0.12 µg/mL (≈ 0.288 µM) | 4 µg/mL (≈ 9.6 µM) | – | – | – | – | – | – | – |
| C[C@H](O)c1nccn1[C@@H](C#Cc1ccc(-c2ccc(CO[C@H]3COC[C@@H]3O)c(F)c2)cc1)CO (single isomer, unassigned) [Compound 46] | – | – | – | – | – | – | – | – | 2 µg/mL | 1 µg/mL | 4 µg/mL |
